This is an account of results in patent US20050124607A1, “5-Substituted quinazolinone compounds useful as alpha 1A/B adrenergic receptor antagonists” (priority 2003, published 2005).

Each structure is given as a SMILES string. Counter-ions that a name gives are not always drawn.

As to `COc1cc2[nH]c(N3CCC(c4cccc(/N=C(\C)N(C)C)c4)C3)nc(=O)c2c(C)c1OC` (centres unmarked) [Example 142, N′-{3-[1-(6,7-Di-methoxy-5-methyl-4-oxo-1,4-di-hydro-quina-zolin-2-yl)-pyr-rolidin-3-yl]-phenyl}-N,N-di-methyl-acetamidine], the melting point (usually the temperature, or range, at which the solid turns liquid) is 152.2 to 154.4 °C. The figure for `COc1cc2[nH]c(N3CCc4c(cccc4/N=C(\C)N(C)C)C3)nc(=O)c2c(OC)c1OC` [Example 122, N,N-Dimethyl-N′-[2-(5,6,7-tri-methoxy-4-oxo-1,4-di-hydro-quinazolin-2-yl)-1,2,3,4-tetra-hydro-iso-quinolin-5-yl]-acetamidine] is 223.5 to 226.6 °C; for `CNCc1cccc2c1CCN(c1nc(=O)c3c(C)c(OC)c(OC)cc3[nH]1)C2` [Example 6, 6,7-Dimethoxy-5-meth-yl-2-(5-methyl-aminomethyl-3,4-di-hydro-1H-isoquinolin-2-yl)-1H-quin-azolin-4-one] it is 241.9 to 245.5 °C; for `COc1ccnc(N2CCN(c3nc(=O)c4c(OC)c(OC)c(OC)cc4[nH]3)CC2)c1` [Example 30, 5,6,7-Trimethoxy-2-[4-(4-meth-oxy-pyridin-2-yl)-pipe-razin-1-yl]-1H-quina-zolin-4-one] it is 229 to 231 °C. The figure for `COc1cc2[nH]c(N3CCN(c4ccccn4)CC3)nc(=O)c2c(C)c1OC` (as salt: HCl) [Example 40, 6,7-Dimethoxy-5-meth-yl-2-(4-pyridin-2-yl-pipe-razin-1-yl)-1H-quina-zolin-4-one] is 286.6 to 293.1 °C. The figure for `COc1cc2[nH]c(N3CCC(OCc4cccc(/N=C(\C)N(C)C)c4)CC3)nc(=O)c2c(OC)c1OC` [Example 81, N,N-Dimethyl-N′-{3-[1-(5,6,7-tri-methoxy-4-oxo-1,4-di-hydro-quinazolin-2-yl)-pipe-ridin-4-yloxy-methyl]-phenyl}-acetamidine] is 56 to 64.9 °C. On to `COc1cc2[nH]c(N3CCCC3c3cccc(NCCNC(C)=O)c3)nc(=O)c2c(OC)c1OC` (centres unmarked) [Example 139, N-(2-{3-[1-(5,6,7-Tri-methoxy-4-oxo-1,4-di-hydro-quinazolin-2-yl)-pyr-rolidin-2-yl]-phenyl-amino}-ethyl)-acetamide], for which the melting point was 188.6 to 191 °C.

Consider `COc1cc2c(cc1OC)CN(c1nc(=O)c3c(Cl)c(OC)c(OC)cc3[nH]1)CC2` [Example 134, 5-Chloro-2-(6,7-di-methoxy-3,4-dihydro-1H-iso-quinolin-2-yl)-6,7-di-methoxy-1H-quinazolin-4-one], for which the melting point was 255.4 to 259.9 °C. `CCOc1c(OC)c(OC)cc2[nH]c(N3CCc4cc(OC)c(OC)cc4C3)nc(=O)c12` (as salt: HCl) [Example 109, 2-(6,7-Dimethoxy-3,4-di-hydro-1H-isoquinolin-2-yl)-5-eth-oxy-6,7-di-methoxy-1H-quinazolin-4-one] came in with a melting point of 218.5 to 221 °C.

The compound `COc1cc2[nH]c(N3CCN(c4cccc(C)n4)CC3)nc(=O)c2c(C)c1OC` [Example 42, 6,7-Dimethoxy-5-meth-yl-2-[4-(6-methyl-py-ridin-2-yl)-piperazin-1-yl]-1H-quina-zolin-4-one] came in with a melting point of 284.5 to 285.5 °C. Consider `COc1cc2c(cc1OC)CN(c1nc(=O)c3c(OC)c(OC)c(OC)cc3[nH]1)CC2` (as salt: HCl) [Example 104, 2-(6,7-Dimethoxy-3,4-di-hydro-1H-isoquinolin-2-yl)-5,6,7-tri-methoxy-1H-quinazolin-4-one], for which the melting point fell in the range of 267 to 270 °C. The figure for `COc1cc2[nH]c(N3CCc4c(cccc4/N=C(/C)N(C)C)C3)nc(=O)c2c(C)c1OC` [Example F-1, N′-[2-(6,7-Dimethoxy-5-methyl-4-oxo-1,4-dihydro-quinazolin-2-yl)-1,2,3,4-tetrahydro-isoquinolin-5-yl]-N,N-dimethyl-acetamidine] is 270.9 to 273.5 °C; for `COc1cc2c(cc1OC)CN(c1nc(=O)c3c(O)c(OC)c(OC)cc3[nH]1)CC2` (as salt: HCl) [Example 110, 2-(6,7-Dimethoxy-3,4-di-hydro-1H-isoquinolin-2-yl)-5-hy-droxy-6,7-di-methoxy-1H-quinazolin-4-one] it is 255 to 259 °C; for `COC[C@H]1CCCN1CCC1CCN(c2nc(=O)c3c(C)c(OC)c(OC)cc3[nH]2)CC1` [Example 57, 6,7-Dimethoxy-2-{4-[2-((R)-2-meth-oxymethyl-pyr-rolidin-1-yl)-ethyl]-pipe-ridin-1-yl}-5-meth-yl-1H-quinazolin-4-one] it is 219 to 221.9 °C. To `COc1cc2c(cc1OC)CN(c1cc(=O)c3cc(Cl)c(Cl)cc3[nH]1)CC2` [Example 7, 6,7-Dichloro-2-(6,7-di-methoxy-3,4-dihydro-1H-iso-quinolin-2-yl)-1H-quino-lin-4-one] belongs 266 to 271 °C; to `COc1cc2c(cc1OC)CN(c1nc(=O)c3c(C)c(OC)c(OC)cc3[nH]1)CC2` (as salt: HCl) [Example 121, 2-(6,7-Dimethoxy-3,4-di-hydro-1H-isoquinolin-2-yl)-6,7-di-methoxy-5-meth-yl-1H-quinazolin-4-one], 260 to 268 °C; to `COc1cc2[nH]c(N3CCc4c(cccc4NC(=N)c4ccco4)C3)nc(=O)c2c(OC)c1OC` [Example 117, N-[2-(5,6,7-Trimethoxy-4-oxo-1,4-di-hydro-quina-zolin-2-yl)-1,2,3,4-tetra-hydro-isoquinolin-5-yl]-furan-2-car-boxamidine], 223.9 to 225.9 °C. In turn, `COc1cc2[nH]c(N3CCc4ccc(/N=C(\C)N(C)C)cc4C3)nc(=O)c2c(C)c1OC` [Example 132, N′-[2-(6,7-Dimethoxy-5-meth-yl-4-oxo-1,4-di-hydro-quinazolin-2-yl)-1,2,3,4-tetra-hydro-isoquinolin-7-yl]-N,N-di-methyl-acetamidine] registered a melting point of 176 to 177.1 °C. The figure for `COc1cc2c(cc1OC)CN(c1nc(=O)c3c(C(C)C)c(OC)c(OC)cc3[nH]1)CC2` (as salt: HCl) [Example 119, 2-(6,7-Dimethoxy-3,4-di-hydro-1H-isoquinolin-2-yl)-5-iso-propyl-6,7-di-methoxy-1H-quina-zolin-4-one] is 243 to 244 °C; for `COc1cc2[nH]c(N3CCC(CCn4ccnc4N)CC3)nc(=O)c2c(C)c1OC` it is 130.9 to 133.3 °C; for `COc1cc2[nH]c(N3CCc4c(ncnc4N4CCOCC4)C3)nc(=O)c2c(C)c1OC` [Example 136, 6,7-Dimethoxy-5-meth-yl-2-(4-morpholin-4-yl-5,8-di-hydro-6H-py-rido[3,4-d]pyrimidin-7-yl)-1H-quina-zolin-4-one] it is greater than 300 °C.

For `COc1cc2[nH]c(N3CCC(CCN4CCN=C4C)CC3)nc(=O)c2c(C)c1OC`, the melting point was in the range of 266.1 to 269.5 °C. Turning to `COc1cc2[nH]c(N3CCCN(C(=O)N4CCOCC4)CC3)nc(=O)c2c(C)c1OC` (as salt: HCl) [Example 137, 6,7-Dimethoxy-5-meth-yl-2-[4-(morpho-line-4-carbo-nyl)-[1,4]diazepan-1-yl]-1H-quina-zolin-4-one], the melting point lay within 236.6 to 237.7 °C. The figure for `COc1cc2[nH]c(N3CCc4c(cccc4NC(=N)c4ccco4)C3)nc(=O)c2c(C)c1OC` [Example 124, N-[2-(6,7-Dimethoxy-5-meth-yl-4-oxo-1,4-di-hydro-quinazolin-2-yl)-1,2,3,4-tetra-hydro-iso-quinolin-5-yl]-furan-2-carboxamidine] is 279 to 282 °C; for `COc1cc2[nH]c(N3CCN(C4=NCCN4C)CC3)nc(=O)c2c(OC)c1OC` (as salt: HCl) it is 181.6 to 188.8 °C; for `COc1cc2[nH]c(N3CCN(C(=O)CCC(C)C)CC3)nc(=O)c2c(OC)c1OC.Cl` it is 198 to 201 °C. Turning to `COC[C@@H]1CCCN1CCC1CCN(c2nc(=O)c3c(OC)c(OC)c(OC)cc3[nH]2)CC1` [Example 69, 5,6,7-Trimeth-oxy-2-{4-[2-((S)-2-meth-oxymethyl-pyr-rolidin-1-yl)-ethyl]-pipe-ridin-1-yl}-1H-quina-zolin-4-one], the melting point was 78.8 to 91.6 °C.

In turn, `CCN(C)Cc1ccc2c(c1)CN(c1nc(=O)c3c(OC)c(OC)c(OC)cc3[nH]1)CC2` [Example 1, 2-{7-[(Ethyl-methyl-ami-no)-methyl]-3,4-di-hydro-1H-isoquinolin-2-yl}-5,6,7-tri-methoxy-1H-quina-zolin-4-one] showed a melting point of 161.4 to 163.9 °C.

For the compound `COc1cc2c(cc1OC)CN(c1nc(=O)c3c(OCCO)c(OC)c(OC)cc3[nH]1)CC2` [Example 111, 2-(6,7-Dimethoxy-3,4-di-hydro-1H-isoquinolin-2-yl)-5-(2-hy-droxy-ethoxy)-6,7-di-methoxy-1H-quinazolin-4-one], the melting point was in the range of 224 to 229 °C. The figure for `CCCC(=N)Nc1cccc2c1CCN(c1nc(=O)c3c(C)c(OC)c(OC)cc3[nH]1)C2` [Example 125, N-[2-(6,7-Dimethoxy-5-meth-yl-4-oxo-1,4-di-hydro-quinazolin-2-yl)-1,2,3,4-tetra-hydro-isoquinolin-5-yl]-butyramidine] is 254.3 to 257.1 °C. Compound `CCN(C)Cc1ccc2c(c1)CN(c1nc(=O)c3c(C)c(OC)c(OC)cc3[nH]1)CC2` [Example 2, 2-{7-[(Ethyl-methyl-ami-no)-methyl]-3,4-di-hydro-1H-isoquinolin-2-yl}-6,7-di-methoxy-5-meth-yl-1H-quinazolin-4-one] returned a melting point of 189.4 to 204.6 °C.

Consider `COc1cc2[nH]c(N3CCN(c4nccn4C)CC3)nc(=O)c2c(C)c1OC`, for which the melting point fell in the range of 263 to 264 °C.

`COc1cc2nc(N3CCN(C(=O)CCC(C)C)CC3)[nH]c(=O)c2c(OC)c1OC` (as salt: salt) [Example A-1, 5,6,7-Trimethoxy-2-[4-(4-methyl-pentanoyl)-piperazin-1-yl]-1H-quinazolin-4-one] gave a melting point of 198 to 201 °C. As for `COc1cc2[nH]c(N3CCc4c(cccc4C4=NCCN4C)C3)nc(=O)c2c(C)c1OC`, the melting point is 246 to 250 °C. For the compound `COc1cc2c(cc1OC)CN(c1nc(=O)c3c(OC(C)C)c(OC)c(OC)cc3[nH]1)CC2` (as salt: HCl) [Example 107, 2-(6,7-Dimethoxy-3,4-di-hydro-1H-isoquinolin-2-yl)-5-iso-propoxy-6,7-di-methoxy-1H-quina-zolin-4-one], the melting point was 253.3 to 261.9 °C.
